This is an account of results in PubChem BioAssay AID602267 (Broad Institute, 2012).

Molecules are shown by their SMILES. Activity calls are given as the source filed them.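 The calls were made as follows: active = signal falls with dose and the fitted half-maximal concentration is at or below twice the top valid tested dose; inconclusive = flat curve with 30 to 70% inhibition, or poor fit; inactive = wrong direction, flat within 30%, or potency beyond limit.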

The assay has as its target Golgi-associated PDZ and coiled-coil motif-containing protein (Homo sapiens) (UniProt Q9HD26). Put plainly: blockers of CAL PDZ ligand groove binding – biochemical, fluorescence polarization, untagged CAL PDZ, cherry-pick, dose response (AID 602267). The conditions noted are these: purified CAL PDZ, TMR-peptide fluorescence polarization, 1 h. For orientation: Fluorescence polarisation rises when a labelled molecule tumbles more slowly, as on binding a larger partner.

On to `COc1cccc(CN2CCN(C3CSCCSC3)CC2CCO)c1` (stereo not drawn), for which the “activity change, negative = inhibition” value (at 50 µM (top of the series)) is “inactive”. On the same count and under the same terms, as for `O=C(NNS(=O)(=O)c1ccc(Cl)cc1)c1cccs1`, the entry is “inactive”. With `Cc1cc(C)c(C(=O)N2CCC3(CC2)OCCO3)c(C)c1`, the “activity change, negative = inhibition” value (at 50 µM (top of the series)) is “inactive”. For `Cc1ccc(CN(C(=O)c2ccco2)C(C(=O)NC2CCCC2)c2cccnc2)cc1` (stereo not drawn), under “at 50 µM (top of the series)”, the “activity change, negative = inhibition” value was “inactive”.

On to `CCN(C(=O)CSc1ncccc1C(=O)O)C1CCCCC1`, for which the “activity change, negative = inhibition” value (at 50 µM (top of the series)) was “inactive”. Take `Cc1[nH]c2ccccc2c1C(=O)CSc1nc2ncc(Cl)cc2[nH]1`: for the setting “at 50 µM (top of the series)”, the “activity change, negative = inhibition” value is “inactive”.

With `COc1cc(C)cc(CN2CC=C(c3ccccc3)CC2)c1O`, for the setting “at 50 µM (top of the series)”, the “activity change, negative = inhibition” value is “inactive”. For the compound `O=C(c1cc(Br)ccc1Cl)N1CCN(c2ccccn2)CC1`, the “activity change, negative = inhibition” value (at 50 µM (top of the series)) is “inactive”.

Take `CCCOc1ccc(CC(=O)N/N=C\c2ccc(F)cc2)cc1`: the “activity change, negative = inhibition” value (at 50 µM (top of the series)) was “inactive”. On the same count and under the same terms, as for `O=C(c1ccccc1)c1c2c(cc3sc4ccccc4[n+]13)-c1cccc3cccc-2c13`, the entry is “inactive”; as for `O=C1CN=C(c2ccccc2)c2oc3ccc(Br)cc3c2N1`, “inactive”; as for `CCCCOc1ccc(C(=O)N2CCNC(=O)C2CC(=O)OC(C)C)cc1` (stereo not drawn), “inactive”. `CSc1ccccc1NC(=O)c1ccccc1`: for the setting “at 50 µM (top of the series)”, the “activity change, negative = inhibition” value was “inactive”.

In the case of `O=C(C=Cc1ccccc1)c1cc(Br)ccc1O`, the “activity change, negative = inhibition” value (at 50 µM (top of the series)) was “inactive”. On the same count and under the same terms, with `CC(c1ccccc1)N1CCN(C(=O)CCl)CC1` (stereo not drawn) the entry was “inactive”.

`CC(C)(C)OC(=O)N[C@@H](Cc1c[nH]c2ccccc12)c1nnc(SCC(N)=O)o1`: the “activity change, negative = inhibition” value (at 50 µM (top of the series)) was “inactive”. As for `COc1ccc(CSc2ncnc3sccc23)cc1F`, the “activity change, negative = inhibition” value (at 50 µM (top of the series)) was “inactive”. `COc1ccc(/C=N/N2CCN(c3ccccc3OC)CC2)cc1Br`: the “activity change, negative = inhibition” value (at 50 µM (top of the series)) is “inactive”. On to `C=CCNC(=S)Nc1ccc(C)c(S(=O)(=O)N2CCCCC2)c1`, for which, where the note is “at 50 µM (top of the series)”, the “activity change, negative = inhibition” value is “inactive”. Take `O=C(NCc1ccccc1)C1CCCN(c2nc3ccsc3c(=O)s2)C1` (stereo not drawn): the “activity change, negative = inhibition” value (at 50 µM (top of the series)) is “inactive”.

`Cc1ccc2nc(CSc3nnc(-c4ccncc4)n3C)cc(=O)n2c1`: the “activity change, negative = inhibition” value (at 50 µM (top of the series)) is “inactive”. On to `O=C(NCCN1C(=O)S/C(=C\c2ccc(Cl)c(Cl)c2)C1=O)C1COc2ccccc2O1` (stereo not drawn), for which the “activity change, negative = inhibition” value (at 50 µM (top of the series)) is “inactive”. With `Cc1ccc2nc(NCc3ccc(F)cc3)c3nncn3c2c1`, the “activity change, negative = inhibition” value (at 50 µM (top of the series)) is “inactive”.

As to `O=C(NCc1cccnc1)c1ccc(Cn2c(=S)[nH]c3ccc(Br)cc3c2=O)cc1`, where the note is “at 50 µM (top of the series)”, the “activity change, negative = inhibition” value was “inactive”.

Take `O=C(COC(=O)c1cccc(O)c1)NC(=O)Cc1ccccc1`: the “activity change, negative = inhibition” value (at 50 µM (top of the series)) is “inactive”.

On to `Cc1ccc(-c2[nH]c3ccccc3c2SCCN)cc1`, for which the “activity change, negative = inhibition” value (at 50 µM (top of the series)) is “inactive”. In the case of `CN(C)c1ccc(C=c2c3cc(O)ccc3n3c2cc(-c2ccccc2)[n+]3C)cc1`, the “activity change, negative = inhibition” value (at 50 µM (top of the series)) is “inactive”. For `O=C(O)c1cccc(Nc2ccc([N+](=O)[O-])cn2)c1`, the “activity change, negative = inhibition” value (at 50 µM (top of the series)) was “inactive”. On the same count and under the same terms, as for `Cc1ccc(/C=N/NC(=O)NN(C)c2ncc(C(F)(F)F)cc2Cl)cc1`, the entry is “inactive”. Consider `CC1CCC(NC(=O)c2ccc3c(c2)S(=O)(=O)c2ccccc2C3=O)CC1` (stereo not drawn), for which the “activity change, negative = inhibition” value (at 50 µM (top of the series)) is “inactive”. Turning to `CCNS(=O)(=O)c1ccc(CCC(=O)N2CCCC2)cc1`, the “activity change, negative = inhibition” value (at 50 µM (top of the series)) was “inactive”. On to `Cc1ccc(SCC(=O)NCc2ccc(F)cc2)cc1`, for which the “activity change, negative = inhibition” value (at 50 µM (top of the series)) was “inactive”.

`O=C(Oc1c(CN2CCOCC2)cc(Cl)c2cccnc12)c1ccc(F)cc1`: the “activity change, negative = inhibition” value (at 50 µM (top of the series)) is “inactive”. `COC(=O)[C@H]1[C@H]2C[C@@H]3c4[nH]c5cc(OC)ccc5c4CCN3C[C@H]2C[C@@H](OC(=O)/C=C/c2cc(OC)c(OC)c(OC)c2)[C@@H]1OC`: the “activity change, negative = inhibition” value (at 50 µM (top of the series)) is “inactive”. In the case of `c1ccc(CNc2nc(NCc3ccccc3)c3ccccc3n2)cc1`, the “activity change, negative = inhibition” value (at 50 µM (top of the series)) was “inactive”. Take `CCN1CCN(S(=O)(=O)c2ccc(OC)c3ccccc23)CC1`: where the note is “at 50 µM (top of the series)”, the “activity change, negative = inhibition” value is “inactive”.

In the case of `Cc1ccc(C(C)NC(=O)Cc2cccs2)c(C)c1` (stereo not drawn), where the note is “at 50 µM (top of the series)”, the “activity change, negative = inhibition” value was “inactive”. Consider `Cc1cc(=O)n2c3ccccc3n(CC(O)CN3CCN(CCO)CC3)c2c1C#N` (stereo not drawn), for which the “activity change, negative = inhibition” value (at 50 µM (top of the series)) is “inactive”. As for `CC1CCN(c2nc3c(c(=O)n(C)c(=O)n3C)n2CCSc2nc3ccccc3s2)CC1`, the “activity change, negative = inhibition” value (at 16 µM (top of the series)) is “inactive”. Take `O=C(NCc1ccccc1Cl)C1CC(=O)N(Cc2ccccc2)C1` (stereo not drawn): the “activity change, negative = inhibition” value (at 50 µM (top of the series)) is “inactive”. Same read-out and setting: with `Cc1sc(NC(=O)c2ccco2)c(C(Nc2ccccn2)c2ccccc2)c1C` (stereo not drawn) the entry was “inactive”. As to `O=C1CSC(=Nc2ccccc2Cl)N1`, the “activity change, negative = inhibition” value (at 50 µM (top of the series)) is “inactive”. Still for that read-out and setting: with `COc1cc(NC(=O)c2cccs2)ccc1NC(=O)c1ccccc1Cl` the entry was “inactive”.
